Measured values as given in BigSolDB 2.1.

CNC[C@H](O)c1cccc(O)c1.Cl
solubility (mole fraction)
Conditions	in 2-butoxyethanol	in 2-ethoxyethanol	in 2-methoxyethanol	in 2-propoxyethanol	in DMF	in NMP	in ethanol	in isopropanol	in methanol	in n-propanol
278.15 K	0.00496	0.0254	0.114	0.00782	0.185	0.154	0.0138	0.00201	0.0715	0.00469
283.15 K	0.00611	0.0305	0.122	0.01	0.198	0.161	0.0168	0.00251	0.0811	0.00586
288.15 K	0.00811	0.0386	0.131	0.0132	0.21	0.169	0.0195	0.00335	0.09	0.00728
293.15 K	0.0102	0.0465	0.14	0.0162	0.222	0.178	0.0233	0.00409	0.101	0.00905
298.15 K	0.0126	0.0553	0.147	0.0195	0.236	0.186	0.0287	0.00492	0.111	0.0107
303.15 K	0.016	0.0654	0.161	0.0244	0.251	0.198	0.034	0.0062	0.123	0.0133
308.15 K	0.0195	0.0761	0.171	0.0304	0.265	0.208	0.0404	0.00768	0.136	0.0163
313.15 K	0.0248	0.0903	0.183	0.0376	0.284	0.22	0.047	0.00931	0.15	0.0196
318.15 K	0.0306	0.106	0.195	0.0462	0.299	0.232	0.0554	0.0113	0.165	0.0236
323.15 K	0.0372	0.122	0.21	0.0566	0.315	0.246	0.0654	0.0138	0.182	0.0282
